The data set concerns the target hERG channel (Homo sapiens, UniProt Q12809, species not given). The experiment in a line: hERG channel inhibition assay. It is filed as cell-based. (The hERG channel carries a current that helps repolarise heart muscle cells.)

hERG channel, sequence (Q12809 whole entry): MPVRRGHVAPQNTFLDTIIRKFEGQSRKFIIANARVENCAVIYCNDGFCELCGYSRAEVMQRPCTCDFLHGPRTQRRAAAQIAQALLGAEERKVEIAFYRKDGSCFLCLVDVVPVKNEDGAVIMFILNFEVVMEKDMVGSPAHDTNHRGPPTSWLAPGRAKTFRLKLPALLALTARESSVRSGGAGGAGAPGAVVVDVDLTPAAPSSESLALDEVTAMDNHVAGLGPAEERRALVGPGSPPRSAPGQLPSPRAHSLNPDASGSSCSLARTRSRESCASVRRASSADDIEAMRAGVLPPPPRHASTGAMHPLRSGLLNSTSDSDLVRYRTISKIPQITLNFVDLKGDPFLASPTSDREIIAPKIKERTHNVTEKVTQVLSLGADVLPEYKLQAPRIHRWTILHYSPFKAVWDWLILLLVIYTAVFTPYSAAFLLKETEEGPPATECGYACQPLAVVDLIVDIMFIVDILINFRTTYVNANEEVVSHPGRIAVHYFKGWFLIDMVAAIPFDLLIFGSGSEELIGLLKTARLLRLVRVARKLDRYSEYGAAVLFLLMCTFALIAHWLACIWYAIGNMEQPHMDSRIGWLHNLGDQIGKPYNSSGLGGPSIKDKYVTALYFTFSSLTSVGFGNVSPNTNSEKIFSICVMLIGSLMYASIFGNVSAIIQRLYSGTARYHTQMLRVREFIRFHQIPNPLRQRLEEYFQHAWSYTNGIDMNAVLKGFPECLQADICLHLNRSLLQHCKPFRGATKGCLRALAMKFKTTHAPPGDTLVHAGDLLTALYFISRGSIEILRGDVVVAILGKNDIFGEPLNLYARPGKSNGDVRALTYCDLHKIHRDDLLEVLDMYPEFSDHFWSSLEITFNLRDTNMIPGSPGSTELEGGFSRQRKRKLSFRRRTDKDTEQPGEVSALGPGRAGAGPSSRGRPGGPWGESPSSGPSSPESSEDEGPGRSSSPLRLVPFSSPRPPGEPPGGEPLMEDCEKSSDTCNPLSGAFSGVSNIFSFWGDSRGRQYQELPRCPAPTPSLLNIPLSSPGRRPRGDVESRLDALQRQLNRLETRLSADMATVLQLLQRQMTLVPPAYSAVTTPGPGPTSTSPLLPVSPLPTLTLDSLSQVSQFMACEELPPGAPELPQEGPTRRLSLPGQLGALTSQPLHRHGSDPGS

The IC50 is the concentration needed to halve the response being measured. Higher therefore signals lower potency. As for `CNC(=O)C[C@@H](NC(=O)C[C@H](Cc1c[nH]c2ccccc12)NC(=O)[C@@H]1CCCC[C@H]1NCc1cnc(-c2sc(C)nc2C)o1)c1ccccc1` [DEL-C1], the IC50 was greater than 100 µM.

(Values after article doi:10.1101/2025.10.20.683491v1 (biorxiv, 2025).)
